In brackets after ≈: the same amount, converted by molar mass. Where two headings read alike, the source gives them in different places.
Key:
[1] = system: C. albicans NCPF3281; assay: Candida panel MIC, serial dilution in 96-well plates; format: cell-based, Candida albicans; settings: Candida albicans, read-out: MIC C. albicans NCPF3281
Procedure: (§1) The minimum inhibitory concentration of test compounds were determined in a panel of Candida species (see Table 4 below), using the a serial dilution method in 96-well plates using the following protocol.
(§2) Starter cultures of fungal strains to be tested were grown in 3 mL of RPMI 2% glucose media incubated at 37° C. with shaking at 200 rpm overnight. The culture media used was 900 mL H2O; 10.4 g RPMI 1640 (with L-glutamine and a pH indicator but without bicarbonate); 34.5 g MOPS and 18 g glucose. The pH of the media was adjusted to 7.0 with 1 M sodium hydroxide.
(§3) Solutions of the compound to be tested were prepared by dissolving the compound in DMSO and subsequently into media to the desired concentrations. 200 μL of compound solution was then added to the wells of the 96-well plate using a serial dilution method row-by row of the plate to give a compound concentration gradient across the plate of from 128 μg/mL to 0.25 μg/mL. The last two rows of each plate were control rows containing the culture media alone and the media plus fungi.
(§4) The fungi starter cultures were diluted 1:10 in water in cuvettes. This was then further diluted to an optical density (OD600) of 0.01 in media. 100 μL of the fungi was added to each well giving a starting concentration of fungus of 0.5-5×10^5/mL. One species of fungus was used on each plate. The plates were then held at 37° C. for 24 hours.
(§5) A plate reader was used to measure growth in each well at OD530 nm and the MIC was determined for each test compound. The MIC is defined as the lowest concentration giving rise to inhibition of ≥50% of that of the drug-free control well containing the fungus and media.

[2] = system: C. glabrata NCPF8018; assay: as above; format: cell-based, Candida glabrata; settings: Nakaseomyces glabratus, NCPF8018; Table 4, common panel; 24 hours, ≥50% inhibition; read-out: MIC C. glabrata NCPF8018
Procedure: as §1, §2
(§6) Solutions of the compound to be tested were prepared by dissolving the compound in DMSO and subsequently into media to the desired concentrations. […] The last two rows of each plate were control rows containing the culture media alone and the media plus fungi.
as §4, §5

[3] = system: C. krusei NCPF3876; assay: microbe, parasite or virus in culture; format: cell-based, Candida krusei; settings: Pichia kudriavzevii, NCPF3876; Table 4, common panel; 24 hours, ≥50% inhibition; read-out: MIC C. krusei NCPF3876
Procedure: as §1, §2, §6, §4, §5

[4] = system: C. parapsilosis NCPF3209; assay: microbe, parasite or virus in culture; format: cell-based, Candida parapsilosis; settings: Lodderomyces parapsilosis, NCPF3209; Table 4, common panel; 24 hours, ≥50% inhibition; read-out: MIC C. parapsilosis NCPF3209
Procedure: as §1, §2, §6, §4, §5

[5] = system: Candida auris TDG2211; assay: microbe, parasite or virus in culture; format: cell-based; settings: Candidozyma auris, TDG2211; Table 4, extended panel; 24 hours, ≥50% inhibition; read-out: MIC Candida auris TDG2211
Procedure: as §1, §2, §6, §4, §5
(§7) The Candida auris strains shown in Table 7 were either taken from the National Collection of Pathogenic Fungi (NCPF) or collected as part of ongoing surveillance studies. The strains were characterised as follows.

[6] = system: Candida auris TDG2506; assay: microbe, parasite or virus in culture; format: cell-based; settings: Candidozyma auris, TDG2506; Table 4, extended panel; 24 hours, ≥50% inhibition; read-out: MIC Candida auris TDG2506
Procedure: as §1, §2, §6, §4, §5, §7

[7] = system: C. auris TDG1912; assay: Candida panel MIC, serial dilution in 96-well plates; format: cell-based; settings: Candidozyma auris, read-out: MIC C. auris TDG1912
Procedure: as §1, §2, §3, §4, §5

[8] = system: C. tropicalis NCPF8760; assay: as above; format: cell-based; settings: NCPF8760, Table 4, common panel, 24 hours, ≥50% inhibition, read-out: MIC C. tropicalis NCPF8760
Procedure: as §1, §2, §3, §4, §5

[9] = system: Candida auris TDG1102; assay: as above; format: cell-based; settings: Candidozyma auris, TDG1102; Table 4, extended panel; 24 hours, ≥50% inhibition; read-out: MIC Candida auris TDG1102
Procedure: as §1, §2, §3, §4, §5

[10] = system: Candida auris TDG2512; assay: as above; format: cell-based; settings: Candidozyma auris, read-out: MIC Candida auris TDG2512
Procedure: as §1, §2, §3, §4, §5

[11] = system: C. auris 8971; assay: as above; format: cell-based, Candida auris; settings: Candidozyma auris, 8971; Table 4, extended panel; 24 hours, ≥50% inhibition; read-out: MIC C. auris 8971
Procedure: as §1, §2, §6, §4, §5, §7

[12] = system: C. auris 8977; assay: as above; format: cell-based, Candida auris; settings: Candidozyma auris, 8977; Table 4, extended panel; 24 hours, ≥50% inhibition; read-out: MIC C. auris 8977
Procedure: as §1, §2, §6, §4, §5, §7

[13] = system: C. auris 8984; assay: as above; format: cell-based, Candida auris; settings: Candidozyma auris, 8984; Table 4, extended panel; 24 hours, ≥50% inhibition; read-out: MIC C. auris 8984
Procedure: as §1, §2, §6, §4, §5, §7

[14] = NCPF3281, Table 4, common panel, 24 hours, ≥50% inhibition
[15] = TDG1912, Table 4, 24 hours, ≥50% inhibition
[16] = TDG2512, Table 4, extended panel, 24 hours, ≥50% inhibition

SMILES	MIC [1, 14] [µg/mL]	MIC [2] [µg/mL]	MIC [3] [µg/mL]	MIC [4] [µg/mL]	MIC [5] [µg/mL]	MIC [6] [µg/mL]	MIC [7, 15] [µg/mL]	MIC [8] [µg/mL]	MIC [9] [µg/mL]	MIC [10, 16] [µg/mL]	MIC [11] [µg/mL]	MIC [12] [µg/mL]	MIC [13] [µg/mL]	MIC ([1]; NCPF3281, 24 h) [µg/mL]	MIC ([7]; TDG1912, 24 h) [µg/mL]	MIC ([10]; TDG2512, 24 h) [µg/mL]
OC(CN1CCC(Nc2ccc(OCCN3CCCC3)cc2)CC1)(Cn1cncn1)c1ccc(F)cc1F (stereo not shown) [Example 82]	0.25 (≈ 0.475 µM)	32 (≈ 60.8 µM)	8 (≈ 15.2 µM)	0.25 (≈ 0.475 µM)	0.5 to 2 (≈ 0.949 to 3.8 µM)	4 (≈ 7.6 µM)	4 to 16 (≈ 7.6 to 30.4 µM)	> 32	16 (≈ 30.4 µM)	1 (≈ 1.9 µM)	2 to 8 (≈ 3.8 to 15.2 µM)	4 to 16 (≈ 7.6 to 30.4 µM)	4 (≈ 7.6 µM)			
CC1CCN(COc2ccc(NC3CCN(CC(O)(Cn4cncn4)c4ccc(F)cc4F)CC3)cc2)CC1 (stereo not shown) [Example 83]	0.06 (≈ 0.111 µM)	8 (≈ 14.8 µM)	4 (≈ 7.4 µM)	0.06 (≈ 0.111 µM)	0.25 (≈ 0.462 µM)	0.5 to 2 (≈ 0.925 to 3.7 µM)	1 to 4 (≈ 1.85 to 7.4 µM)	8 (≈ 14.8 µM)	4 (≈ 7.4 µM)	0.25 (≈ 0.462 µM)	1 (≈ 1.85 µM)	1 (≈ 1.85 µM)	2 (≈ 3.7 µM)			
Cc1ccc(Oc2ccc(NC3CCN(CC(O)(Cn4cncn4)c4ccc(F)cc4F)CC3)cc2)cc1 (stereo not shown) [Example 85]	0.0078 (≈ 0.015 µM)	1 (≈ 1.92 µM)	0.0156 to 0.25 (≈ 0.03 to 0.481 µM)	0.00391 to 0.0313 (≈ 0.00753 to 0.0602 µM)	0.015 to 0.125 (≈ 0.0289 to 0.241 µM)	0.0625 to 0.125 (≈ 0.12 to 0.241 µM)	0.0625 (≈ 0.12 µM)	0.25 (≈ 0.481 µM)	0.0625 to 0.25 (≈ 0.12 to 0.481 µM)	0.00391 to 0.0313 (≈ 0.00753 to 0.0602 µM)	0.00195 to 0.125 (≈ 0.00375 to 0.241 µM)	0.015 to 0.03 (≈ 0.0289 to 0.0577 µM)	0.0625 to 0.5 (≈ 0.12 to 0.962 µM)			
OC(CN1CCC2(CCC(Nc3ccc(OCCN4CCOCC4)cc3)CC2)C1)(Cn1cncn1)c1ccc(F)cc1F (stereo not shown) [Example 87]		4 (≈ 6.7 µM)	1 (≈ 1.68 µM)	0.313 (≈ 0.525 µM)	0.125 (≈ 0.209 µM)	0.125 (≈ 0.209 µM)		2 (≈ 3.35 µM)	0.5 (≈ 0.838 µM)		0.25 (≈ 0.419 µM)	0.25 (≈ 0.419 µM)	0.25 (≈ 0.419 µM)	0.313 (≈ 0.525 µM)	0.5 (≈ 0.838 µM)	0.0625 (≈ 0.105 µM)
OC(CN1CCC2(CCN(c3ccc(OCCN4CCOCC4)cc3)CC2)C1)(Cn1cncn1)c1ccc(F)cc1F (stereo not shown) [Example 88]	0.0313 (≈ 0.0537 µM)	4 (≈ 6.86 µM)	1 (≈ 1.72 µM)	0.0313 (≈ 0.0537 µM)	0.125 (≈ 0.215 µM)	0.25 (≈ 0.429 µM)	0.5 (≈ 0.858 µM)	1 (≈ 1.72 µM)	0.5 (≈ 0.858 µM)	0.0625 (≈ 0.107 µM)	0.25 (≈ 0.429 µM)	0.125 (≈ 0.215 µM)	0.25 (≈ 0.429 µM)			
OC(CN1CCCN(c2ccc(OCCN3CCOCC3)cc2)CC1)(Cn1cncn1)c1ccc(F)cc1F (stereo not shown) [Example 89]		2 (≈ 3.69 µM)	0.5 (≈ 0.921 µM)	0.0313 (≈ 0.0577 µM)	0.5 (≈ 0.921 µM)	4 to 8 (≈ 7.37 to 14.7 µM)		2 (≈ 3.69 µM)	1 (≈ 1.84 µM)		0.25 (≈ 0.461 µM)	0.25 (≈ 0.461 µM)	4 to 8 (≈ 7.37 to 14.7 µM)	0.156 (≈ 0.287 µM)	1 (≈ 1.84 µM)	0.25 (≈ 0.461 µM)
OC(CN1CCCC(Nc2ccc(OCCN3CCOCC3)cc2)CC1)(Cn1cncn1)c1ccc(F)cc1F (stereo not shown) [Example 91]	0.0156 (≈ 0.0281 µM)	16 (≈ 28.7 µM)	2 (≈ 3.59 µM)	0.0625 (≈ 0.112 µM)	0.25 (≈ 0.449 µM)	4 (≈ 7.19 µM)	4 (≈ 7.19 µM)	8 (≈ 14.4 µM)	2 (≈ 3.59 µM)	0.125 (≈ 0.225 µM)	0.5 (≈ 0.898 µM)	0.5 (≈ 0.898 µM)	4 (≈ 7.19 µM)			

Reference: patent US20240246920A1, “TRIAZOLE DERIVATIVES WITH ANTIFUNGAL ACTIVITY” (King's College London, priority 2020, published 2024)
